Drawing on PubChem BioAssay (NCI), this text covers TGI for six molecules.

The structures appear in SMILES notation.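 Grown in 96-well plates, cells were treated for 48 hours with each compound at five concentrations. Insufficient inhibition: endpoint recorded as highest concentration tested. TGI: total growth inhibition.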 Where only a bound is given, the exact number is not on record here.

Some test systems named below: DLD-1 colon; DMS 114 small cell lung; HOP-18 NSCLC; P388 leukemia; P388/ADR leukemia; SN12K1 renal; RXF-631 renal.
What all share (assay): NCI tumour cell line growth inhibition, 48 h

Regarding `N/C(=N\N=C\c1ccc2c(c1)OCCO2)NO`, the TGI with DLD-1 colon was above 100 µM; in the experiment on DMS 114 small cell lung, above 77.6 µM; in the experiment on HOP-18 NSCLC it was above 100 µM; with P388 leukemia it was 47.3 µM; in the experiment with P388/ADR leukemia, 40.5 µM; in the experiment on SN12K1 renal, above 57.7 µM.

In the case of `O=C1c2ccc(O)c(O)c2C(=O)c2c(O)ccc(O)c21`, the TGI in the experiment on DLD-1 colon was above 100 µM; in the experiment on DMS 114 small cell lung it was 32.6 µM.

For the molecule `Nc1nc2c3nc(Nc4ccccc4)sc3nc(=O)n2c2sc(Nc3ccccc3)nc12`, the TGI with DLD-1 colon and with HOP-18 NSCLC was above 100 µM each time.

For `CCCCCCCCCCCCCCCCCCN(C)CC(COP(=O)([O-])OCC[N+](C)(C)C)OC` (stereo not drawn), the TGI turned out to be 17.3 µM in the experiment with DLD-1 colon, 20.5 µM in the experiment with DMS 114 small cell lung, 32.5 µM with HOP-18 NSCLC and 43.7 µM in the experiment on RXF-631 renal.

As for `CC(=O)O[C@H]1C(=O)[C@@]2(C)C(C(OC(=O)c3ccccc3)C3[C@@H](O)C(OC(=O)[C@@H](O)[C@H](NC(=O)c4ccccc4)c4ccc(C(F)(F)F)cc4)C(C)=C1C3(C)C)[C@]1(OC(C)=O)CO[C@@H]1C[C@@H]2O` (stereo partly drawn), the TGI with DLD-1 colon and in the experiment on DMS 114 small cell lung was above 25 µM in each case.

For the molecule `Cc1cc2c([nH]c3ccccc32)c2c1OC(C)(C)C1C3CC(C)(C)Oc4c(C)cc5c6ccccc6n(c5c43)C21` (stereo not drawn), the TGI in the experiment on DMS 114 small cell lung and in the experiment with HOP-18 NSCLC was above 100 µM throughout.
